Reference: the NIST ThermoML archive (doi:10.1021/je025610o)

Columns and labels:
[1] = xn = mol fraction of the nth substance listed; conditions: 100 kPa, Liquid; for thermal conductivity: Hot wire method
[2] = 100 kPa, Liquid, Capillary tube (Ostwald / Ubbelohde) method

OCCOCCO [diethylene glycol] + O
[1]
Conditions | mass density [kg/m3] | thermal conductivity [W/m/K] | viscosity [mPa·s]
293.45 K, x1 = 0.5 | 1111 | – | 22
294.05 K, x1 = 0.75 | 1115 | – | 30.4
294.25 K, x1 = 0.25 | 1095 | – | 9.79
294.4 K, x1 = 0.25 | – | 0.291 | –
295.9 K, x1 = 0.5 | – | 0.235 | –
296.4 K, x1 = 0.75 | – | 0.209 | –
312.95 K, x1 = 0.5 | 1097 | – | 9.64
313.05 K, x1 = 0.25 | 1081 | – | 4.88
313.05 K, x1 = 0.75 | 1101 | – | 13.3
322.1 K, x1 = 0.5 | – | 0.244 | –
323.4 K, x1 = 0.25 | – | 0.31 | –
323.8 K, x1 = 0.75 | – | 0.213 | –
332.95 K, x1 = 0.5 | 1082 | – | 5.03
333.05 K, x1 = 0.25 | 1066 | – | 2.76
333.05 K, x1 = 0.75 | 1087 | – | 6.75
347.4 K, x1 = 0.25 | – | 0.315 | –
347.8 K, x1 = 0.5 | – | 0.249 | –
349.6 K, x1 = 0.75 | – | 0.217 | –
352.95 K, x1 = 0.5 | 1066 | – | 3.01
353.05 K, x1 = 0.75 | 1071 | – | 3.9
353.15 K, x1 = 0.25 | 1051 | – | 1.76
371.9 K, x1 = 0.5 | – | 0.258 | –
373 K, x1 = 0.25 | – | 0.322 | –
373.2 K, x1 = 0.75 | – | 0.219 | –
380.05 K, x1 = 0.5 | 1043 | – | –
381.45 K, x1 = 0.25 | 1027 | – | –
382.55 K, x1 = 0.5 | – | – | 1.66
382.55 K, x1 = 0.75 | 1048 | – | –
384.95 K, x1 = 0.25 | – | – | 1.03
385.05 K, x1 = 0.75 | – | – | 2
390.25 K, x1 = 0.5 | 1035 | – | –
390.95 K, x1 = 0.75 | 1042 | – | –
392.75 K, x1 = 0.25 | 1017 | – | –
394.25 K, x1 = 0.5 | – | – | 1.37
394.95 K, x1 = 0.75 | – | – | 1.72
395.6 K, x1 = 0.5 | – | 0.257 | –
396 K, x1 = 0.25 | – | 0.325 | –
396.75 K, x1 = 0.25 | – | – | 0.912
396.9 K, x1 = 0.75 | – | 0.217 | –
405.35 K, x1 = 0.5 | 1023 | – | –
406.95 K, x1 = 0.75 | 1029 | – | –
409.25 K, x1 = 0.25 | 1004 | – | –
409.35 K, x1 = 0.5 | – | – | 1.12
410.95 K, x1 = 0.75 | – | – | 1.35
413.25 K, x1 = 0.25 | – | – | 0.743
421.5 K, x1 = 0.25 | – | 0.33 | –
421.6 K, x1 = 0.75 | – | 0.222 | –
422 K, x1 = 0.5 | – | 0.256 | –
424.25 K, x1 = 0.5 | 1006 | – | –
424.65 K, x1 = 0.75 | 1014 | – | –
426.35 K, x1 = 0.25 | 987.6 | – | –
428.25 K, x1 = 0.5 | – | – | 0.865
428.65 K, x1 = 0.75 | – | – | 1.05
430.35 K, x1 = 0.25 | – | – | 0.61
441.65 K, x1 = 0.25 | 973.3 | – | –
443.05 K, x1 = 0.5 | 988.2 | – | –
443.65 K, x1 = 0.75 | 996.3 | – | –
445.65 K, x1 = 0.25 | – | – | 0.521
446.8 K, x1 = 0.75 | – | 0.213 | –
447 K, x1 = 0.5 | – | 0.253 | –
447.05 K, x1 = 0.5 | – | – | 0.707
447.5 K, x1 = 0.25 | – | 0.328 | –
447.65 K, x1 = 0.75 | – | – | 0.838

OCCOCCOCCO [triethylene glycol]
[2]
Conditions | viscosity [mPa·s]
299.65 K | 35.1
313.05 K | 19.5
333.1 K | 9.66
353.05 K | 5.55
373.5 K | 3.41
393.3 K | 2.36
413.25 K | 1.71
428.1 K | 1.39

OCCOCCOCCO [triethylene glycol] + O
[1]
Conditions | mass density [kg/m3] | thermal conductivity [W/m/K] | viscosity [mPa·s]
293.85 K, x1 = 0.25 | 1108 | – | 19.2
294.05 K, x1 = 0.5 | 1120 | – | 36
294.15 K, x1 = 0.75 | 1122 | – | 43.2
295 K, x1 = 0.25 | – | 0.258 | –
295.5 K, x1 = 0.5 | – | 0.21 | –
295.5 K, x1 = 0.75 | – | 0.195 | –
313.05 K, x1 = 0.25 | 1093 | – | 8.6
313.05 K, x1 = 0.5 | 1105 | – | 15.2
313.05 K, x1 = 0.75 | 1108 | – | 18.3
323.8 K, x1 = 0.25 | – | 0.268 | –
324.6 K, x1 = 0.5 | – | 0.216 | –
327.1 K, x1 = 0.75 | – | 0.197 | –
333.05 K, x1 = 0.25 | 1078 | – | 4.52
333.05 K, x1 = 0.5 | 1089 | – | 7.52
333.05 K, x1 = 0.75 | 1092 | – | 9.04
349.1 K, x1 = 0.25 | – | 0.275 | –
349.5 K, x1 = 0.5 | – | 0.219 | –
349.8 K, x1 = 0.75 | – | 0.201 | –
353.05 K, x1 = 0.25 | 1061 | – | 2.7
353.05 K, x1 = 0.5 | 1073 | – | 4.32
353.05 K, x1 = 0.75 | 1076 | – | 5.19
372.7 K, x1 = 0.75 | – | 0.202 | –
373.6 K, x1 = 0.5 | – | 0.22 | –
373.8 K, x1 = 0.25 | – | 0.28 | –
379.65 K, x1 = 0.25 | 1039 | – | –
382.15 K, x1 = 0.25 | – | – | 1.5
384.25 K, x1 = 0.5 | 1046 | – | –
384.95 K, x1 = 0.75 | 1049 | – | –
386.75 K, x1 = 0.5 | – | – | 2.09
387.45 K, x1 = 0.75 | – | – | 2.41
389.35 K, x1 = 0.25 | 1030 | – | –
391.35 K, x1 = 0.5 | 1041 | – | –
392.55 K, x1 = 0.75 | 1044 | – | –
393.35 K, x1 = 0.25 | – | – | 1.27
395.35 K, x1 = 0.5 | – | – | 1.84
396 K, x1 = 0.5 | – | 0.221 | –
396.4 K, x1 = 0.25 | – | 0.285 | –
396.55 K, x1 = 0.75 | – | – | 2.11
397.6 K, x1 = 0.75 | – | 0.2 | –
405.75 K, x1 = 0.25 | 1016 | – | –
407.45 K, x1 = 0.75 | 1032 | – | –
407.85 K, x1 = 0.5 | 1028 | – | –
409.75 K, x1 = 0.25 | – | – | 1
411.45 K, x1 = 0.75 | – | – | 1.68
411.85 K, x1 = 0.5 | – | – | 1.43
421.3 K, x1 = 0.25 | – | 0.292 | –
421.9 K, x1 = 0.5 | – | 0.221 | –
422.5 K, x1 = 0.75 | – | 0.198 | –
423.35 K, x1 = 0.25 | 999.2 | – | –
425.35 K, x1 = 0.75 | 1016 | – | –
425.95 K, x1 = 0.5 | 1011 | – | –
427.35 K, x1 = 0.25 | – | – | 0.813
429.35 K, x1 = 0.75 | – | – | 1.3
429.95 K, x1 = 0.5 | – | – | 1.11
442.45 K, x1 = 0.25 | 980 | – | –
443.45 K, x1 = 0.5 | 995 | – | –
444.55 K, x1 = 0.75 | 999.5 | – | –
445 K, x1 = 0.25 | – | 0.282 | –
446.45 K, x1 = 0.25 | – | – | 0.662
446.5 K, x1 = 0.75 | – | 0.195 | –
447.45 K, x1 = 0.5 | – | – | 0.903
448.3 K, x1 = 0.5 | – | 0.216 | –
448.55 K, x1 = 0.75 | – | – | 1.03
